Data: patent US10968203B2, “Pyrimidinyl-pyridyloxy-naphthyl compounds and methods of treating IRE1-related diseases and disorders” (Genentech, Inc., priority 2017, dated 2021)
Structures can show the parent of a compound that is named as a salt.

These compounds were tested on XBP1s-luc 293 LUC (assay: cellular PD assay, XBP1s-LUC reporter (Example 903)). Conditions: Table 1; read-out: XBP1s-luc 293 LUC (IC50).
Format: cell-based
How it was run: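 Cellular IRE1α pathway activity was quantified from the luciferase signal of an XBP1-Luc reporter, where the luciferase fusion is in frame and expressed only from the spliced XBP1 transcript.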
For Cc1ccc2c(NS(=O)(=O)C3CCCCC3)c(F)ccc2c1Oc1ncccc1-c1ccnc(N[C@@H]2CNC[C@H](C)C2)n1 [Example 317, N-(2-Fluoro-6-methyl-5-((3-(2-(((3S,5R)-5-methylpiperidin-3-yl)amino)pyrimidin-4-yl)pyridin-2-yl)oxy)naphthalen-1-yl)cyclohexanesulfonamide], the IC50 was 17.6 nM. In the case of Cc1ccc2c(Oc3ncccc3-c3ccnc(N[C@H]4CCCNC4)n3)c(C)ccc2c1NS(=O)(=O)CCC(F)(F)F [Example 318, (S)—N-(2,6-Dimethyl-5-((3-(2-(piperidin-3-ylamino)pyrimidin-4-yl)pyridin-2-yl)oxy)naphthalen-1-yl)-3,3,3-trifluoropropane-1-sulfonamide], the IC50 is reported as 41.7 nM. Cc1nc(CNc2cccc3c(Oc4ncccc4-c4ccnc(N[C@H]5CCCNC5)n4)c(C)ccc23)no1 [Example 320, 4-[2-[[2-Methyl-5-[(5-methyl-1,2,4-oxadiazol-3-yl)methylamino]-1-naphthyl]oxy]-3-pyridyl]-N-[(3S)-3-piperidyl]pyrimidin-2-amine] gave an IC50 of 740 nM. Cc1ccc2c(NC[C@H](O)C(F)(F)F)cccc2c1Oc1ncccc1-c1ccnc(N[C@@H]2CNC[C@H](C)C2)n1 [Example 321, (S)-1,1,1-Trifluoro-3-((6-methyl-5-((3-(2-(((3S,5R)-5-methylpiperidin-3-yl)amino)pyrimidin-4-yl)pyridin-2-yl)oxy)naphthalen-1-yl)amino)propan-2-ol] gave an IC50 of 7.36 nM. Cc1nc(CNc2cccc3c(Oc4ncccc4-c4ccnc(N[C@@H]5CNC[C@H](C)C5)n4)c(C)ccc23)cs1 [Example 323, 4-(2-((2-Methyl-5-(((2-methylthiazol-4-yl)methyl)amino)naphthalen-1-yl)oxy)pyridin-3-yl)-N-((3S,5R)-5-methylpiperidin-3-yl)pyrimidin-2-amine] was tested, and the IC50 was 88.9 nM. In the case of Cc1ccc2c(NS(=O)(=O)N(C)C)c(F)ccc2c1Oc1ncccc1-c1ccnc(N[C@H]2CCCNC2)n1 [Example 324, 4-[2-[[5-(Dimethylsulfamoylamino)-6-fluoro-2-methyl-1-naphthyl]oxy]-3-pyridyl]-2-[[(3S)-3-piperidyl]amino]pyrimidine], the IC50 is reported as 45.5 nM. Compound Cc1ccc2c(NS(=O)(=O)N(C)C)c(F)ccc2c1Oc1ncccc1-c1ccnc(N[C@@H]2CNC[C@H](C)C2)n1 [Example 325, 4-[2-[[5-(Dimethylsulfamoylamino)-6-fluoro-2-methyl-1-naphthyl]oxy]-3-pyridyl]-2-[[(3S,5R)-5-methyl-3-piperidyl]amino]pyrimidine] has an IC50 of 35 nM. Compound CO[C@@H](CNc1cccc2c(Oc3ncccc3-c3ccnc(N[C@H]4CCCNC4)n3)c(C)ccc12)C(F)(F)F [Example 326, 4-(2-((2-Methyl-5-(((S)-3,3,3-trifluoro-2-methoxypropyl)amino)naphthalen-1-yl)oxy)pyridin-3-yl)-N—((S)-piperidin-3-yl)pyrimidin-2-amine] has an IC50 of 28.4 nM. Compound Cc1ccc2c(NCCC#N)cccc2c1Oc1ncccc1-c1ccnc(N[C@H]2CCCNC2)n1 [Example 329, (S)-3-((6-Methyl-5-((3-(2-(piperidin-3-ylamino)pyrimidin-4-yl)pyridin-2-yl)oxy)naphthalen-1-yl)amino)propanenitrile] has an IC50 of 123 nM. Cc1ccc2c(NCc3ccn(C)n3)cccc2c1Oc1ncccc1-c1ccnc(N[C@@H]2CNC[C@H](C)C2)n1 [Example 330, 4-(2-((2-Methyl-5-(((1-methyl-1H-pyrazol-3-yl)methyl)amino)naphthalen-1-yl)oxy)pyridin-3-yl)-N-((3S,5R)-5-methylpiperidin-3-yl)pyrimidin-2-amine] was tested, and the IC50 was 197 nM. Compound Cc1ccc2c(N3CCCC3=O)c(F)ccc2c1Oc1ncccc1-c1ccnc(N[C@H]2CCCNC2)n1 [Example 335, (S)-1-(2-Fluoro-6-methyl-5-((3-(2-(piperidin-3-ylamino)pyrimidin-4-yl)pyridin-2-yl)oxy)naphthalen-1-yl)pyrrolidin-2-one] has an IC50 of 384 nM. For CCCS(=O)(=O)Nc1cccc2c(Oc3ncc(Br)cc3-c3ccnc(N[C@H]4CCCNC4)n3)c(C)ccc12 [Example 336, (S)-N-(5-((5-Bromo-3-(2-(piperidin-3-ylamino)pyrimidin-4-yl)pyridin-2-yl)oxy)-6-methylnaphthalen-1-yl)propane-1-sulfonamide], the IC50 was 540 nM. Cc1ccc2c(NC(=O)C3CC3)cccc2c1Oc1ncccc1-c1ccnc(N[C@H]2CCCNC2)n1 [Example 337, (S)—N-(6-Methyl-5-((3-(2-(piperidin-3-ylamino)pyrimidin-4-yl)pyridin-2-yl)oxy)naphthalen-1-yl)cyclopropanecarboxamide hydrochloride] showed an IC50 of 84.2 nM. Compound Cc1ccc2c(NC(=O)C(Cl)Cl)cccc2c1Oc1ncccc1-c1ccnc(N[C@H]2CCCNC2)n1 [Example 338, (S)-2,2-Dichloro-N-(6-methyl-5-(3-(2-(piperidin-3-ylamino)pyrimidin-4-yl)pyridin-2-yloxy)naphthalen-1-yl)acetamide] has an IC50 of 161 nM. With Cc1ccc2c(NCCCC(F)(F)F)cccc2c1Oc1ncccc1-c1ccnc(N[C@H]2CCCNC2)n1 [Example 344, (S)-4-(2-((2-Methyl-5-((4,4,4-trifluorobutyl)amino)naphthalen-1-yl)oxy)pyridin-3-yl)-N-(piperidin-3-yl)pyrimidin-2-amine] the IC50 was 350 nM. CCc1nc(CNc2cccc3c(Oc4ncccc4-c4ccnc(N[C@H]5CCCNC5)n4)c(C)ccc23)cs1 [Example 345, (S)-4-(2-((5-(((2-Ethylthiazol-4-yl)methyl)amino)-2-methylnaphthalen-1-yl)oxy)pyridin-3-yl)-N-(piperidin-3-yl)pyrimidin-2-amine] showed an IC50 of 171 nM. With Cc1ccc2c(NCc3ncsc3C)cccc2c1Oc1ncccc1-c1ccnc(N[C@H]2CCCNC2)n1 [Example 346, (S)-4-(2-((2-Methyl-5-(((5-methylthiazol-4-yl)methyl)amino)naphthalen-1-yl)oxy)pyridin-3-yl)-N-(piperidin-3-yl)pyrimidin-2-amine] the IC50 was 136 nM. Compound Cc1ccc2c(NCCC(C)(C)C#N)cccc2c1Oc1ncccc1-c1ccnc(N[C@H]2CCCNC2)n1 [Example 347, (S)-2,2-Dimethyl-4-((6-methyl-5-((3-(2-(piperidin-3-ylamino)pyrimidin-4-yl)pyridin-2-yl)oxy)naphthalen-1-yl)amino)butanenitrile] has an IC50 of 48 nM. Work on Cc1ccc2c(NCCC(F)(F)F)cccc2c1Oc1ncccc1-c1ccnc(N[C@H]2CCCNC2)n1 [Example 348, (S)-4-(2-((2-Methyl-5-((3,3,3-trifluoropropyl)amino)naphthalen-1-yl)oxy)pyridin-3-yl)-N-(piperidin-3-yl)pyrimidin-2-amine] yielded an IC50 of 79 nM. Compound Cc1ccc2c(NCC(C)C)cccc2c1Oc1ncccc1-c1ccnc(N[C@H]2CCCNC2)n1 [Example 349, (S)-4-(2-((5-(Isobutylamino)-2-methylnaphthalen-1-yl)oxy)pyridin-3-yl)-N-(piperidin-3-yl)pyrimidin-2-amine] has an IC50 of 432 nM.

Same assay, conditions: read-out: XBP1s-luc 293 LUC (IC50)
Cc1ccc2c(Oc3ncccc3-c3ccnc(N[C@H]4CCCNC4)n3)c(C)ccc2c1NC[C@H](O)C(F)(F)F [Example 319, (S)-3-((2,6-Dimethyl-5-((3-(2-((S)-piperidin-3-ylamino)pyrimidin-4-yl)pyridin-2-yl)oxy)naphthalen-1-yl)amino)-1,1,1-trifluoropropan-2-ol] was tested, and the IC50 was 48.2 nM.
